Measurements published in publication PMC3884839, “Pharmacokinetics and pharmacodynamics utilizing unbound target tissue exposure as part of a disposition-based rationale for lead optimization of benzoxaboroles in the treatment of Stage 2 Human African Trypanosomiasis” (Parasitology, 2013).
Like-named read-outs stand apart in the source and are kept apart here.

Columns and labels:
L929 mammalian cell line = assay: L929 mammalian cell cytotoxicity / selectivity; type: cell-based; details: parasite vs L929
[1] = tested on: MDCKII-hMDR1 monolayer (Pgp efflux transporter); assay: MDCKII-hMDR1 monolayer permeability and Pgp-mediated efflux; type: in vitro ADME; details: for Mass balance A–B+GF918 / Mass balance A–B: 3 μM; for Mass balance A–B+GF918: with GF918; for Mass balance A–B: without GF918
Protocol: (§1) The propensity of test compounds to cross the BBB was examined using an in vitro MDCKII-hMDR1 monolayer assay (Polli et al. [2001]). In summary, MDCKII-hMDR1 cells (Netherlands Cancer Institute, Amsterdam, the Netherlands) were seeded at a density of 3×10^5 cells per well onto microporous polycarbonate membranes in 12 well Costar Transwell plates (Corning Inc., Lowell, MA). The cells were incubated for 3 days during which time they formed confluent monolayers. Trans-epithelial resistance (TEER) was measured for each insert to ensure the integrity of the monolayer (acceptable TEER >160 Ω cm^2). The permeability and susceptibility for Pgp-mediated efflux was evaluated by adding each compound at a concentration of 3 μM, in the presence or absence of 2 μM GF120918 (a potent Pgp inhibitor), to the apical compartment. Competency of the Pgp efflux transporter was confirmed by assay of propranolol (non-substrate) and amprenavir (substrate). Cell monolayers were incubated in triplicate with shaking (160 rpm) at 37 °C in a 5% CO2-enriched humidified atmosphere for 1 h. Samples were removed from the apical and basolateral compartments after incubation and assayed for test compound concentrations by LC-MSMS. Values for mass balance, PappA−B, PappA−B+GF918, and absorption quotient (AQ) were calculated for each compound (Troutman and Thakker, [2003]; Thiel-Demby et al. [2004]). Acceptance criterion for mass balance was 70–120%.

P-gp (human MDR1) = assay: as above; type: in vitro ADME; details: dog, 3 μM
Protocol: as §1

[2] = Binding to human plasma protein by rapid equilibrium dialysis; type: in vitro ADME; details: 1 μg mL^−1
Protocol: Binding to plasma proteins, brain homogenates or proteins in serum-fortified HMI-9 media was determined by rapid equilibrium dialysis (RED) (Pierce, Rockford, IL) using a 48-well plate-based format according to the manufacturer's instructions. Briefly, test compound was added to fresh plasma (Bioreclamation, Liverpool, NY) at the required concentrations, freshly prepared brain homogenate or media. Duplicate aliquots of each sample were transferred into the sample chambers of the RED devices, and dialysis buffer (BupH PBS) was added to the buffer chambers. The plates were sealed and incubated at 37 °C for 4 h. After dialysis, samples collected from the buffer and tissue chambers were treated with ice-cold methanol (3 volumes for plasma or HMI-9 media, 4 volumes for brain) to precipitate proteins. The treated samples were centrifuged for 10 min at approximately 3000 g at 15 °C. The supernatants were assayed for test compound by LC-MSMS. Calibration standards and quality control samples were prepared in matched matrix and assayed with samples. Values for unbound and bound fractions and mass balance were calculated. Concordance of binding for each batch of plasma was confirmed by assay of warfarin, imipramine and carbamezapine. Acceptance criterion for mass balance was 70–120%.

[3] = Single oral dose pharmacokinetics and CNS penetration in male CD-1 mice; type: in vivo, mouse
Protocol: The CNS disposition and pharmacokinetics of the benzoxaboroles were evaluated in infected and uninfected mice following oral administration. In vivo phases of single-dose rodent PK studies were performed at Vivisource (Waltham, MA) following Institutional Animal Care and Use Committee (IACUC) review in an Association for Assessment and Accreditation of Laboratory Animal Care International (AAALAC)-approved facility. Studies in Trypanosoma brucei brucei (TREU 667 strain) infected mice, or uninfected satellite animals, were performed after IACUC review at Pace University (NewYork, NY).
Male CD-1 or female Swiss Webster mice (approximately 25 g) were administered test compounds by oral gavage either once (QD) or twice per day (Q12 h) with doses ranging between 6 and 100 mg kg^−1 as described below. All compounds were formulated as an in situ sodium salt in 2% (v/v) ethanol, 5% (m/v) dextrose, to yield typically clear colourless solutions that were administered at 4 mL kg^−1. Blood samples for pharmacokinetic studies were collected into polypropylene tubes containing K2EDTA anticoagulant and stored on wet ice until centrifuged and processed to plasma. Plasma was stored at −80 °C. Blood samples from mice were collected via cardiac puncture under terminal anaesthesia. Rodents were euthanized in a CO2 chamber before collection of terminal blood or tissue samples. Brain tissues were blotted dry and stored at approximately −80 °C.
Plasma (50 μL) was treated with 4 volumes of ice-cold methanol (containing 25 ng mL^−1 of either deuterium (d6)-labelled SCYX-7158 internal standard (SCYX-5232) for SCYX-7158 analyses or a related benzoxaborole for other compounds) to precipitate proteins. Treated samples were gently mixed on a 96-well plate shaker for approximately 10 min then centrifuged at approximately 3000 g and 15 °C for 15 min. Supernatants were transferred to fresh 96-well plates for analysis by means of LC-MSMS. Samples of tissue homogenate (50 μL), or buffer from protein binding studies, were treated similarly to plasma samples.
All biological samples were assayed by a verified LC-MSMS method employing two dimensional chromatographic separation to overcome ion suppression (Annesely, [2003]) caused by co-elution of endogenous components with benzoxaboroles. In summary, treated samples were loaded onto Phenomenex (Torrance, CA) Synergi Polar RP, 4 μ, 50×2 mm extraction columns and subsequently back-eluted onto a Phenomenex Luna C8(2) 3 μ, 50×2 mm analytical columns protected by a Phenomenex C8 guard cartridge. Mobile phases for extraction and analytical columns consisted of 5 mM ammonium formate and 0·1% (v/v) formic acid in water (A), and 5 mM ammonium formate and 0·1% (v/v) formic acid in methanol (B). […]

T. b. brucei (TREU 667) = assay: Murine model of Stage 2 (CNS) HAT; type: in vivo, mouse; details: oral administration
Protocol: The efficacy of benzoxaboroles was evaluated in a murine model of Stage 2 (CNS) HAT (Nare et al. [2010]; Jacobs et al. [2011]). In summary, mice (n = 10 per group) were infected by bolus i.p. injection of 1×10^4 T. b. brucei (TREU 667) parasites. A single bolus i.p. dose (10 mg kg^-1) of berenil (Sigma-Aldrich, St. Louis, MO) was administered on day 4 as a positive treatment control for haemolymphatic-stage infection. Infection of the remaining animals proceeded for 21 days to establish a CNS infection before treatment with either a single dose of berenil (as above) or test compounds by the oral route either once or twice daily over 7 days at the doses indicated below. Animals were checked at least weekly for parasitaemia and were immediately removed from cages and euthanized upon recrudescence. Animals were considered cured if they were […] for at least 180 days after treatment.

T. b. brucei = assay: Serum-shift assay (effect of foetal calf serum on trypanocidal IC50); type: cell-based, Trypanosoma brucei brucei; details: 72 h, relative to 2·5% serum
Protocol: To assess the potential effects of protein binding on trypanocidal activity, parasite viability assays were performed in the presence of increasing concentrations (2·5–50%) of foetal calf serum (Invitrogen, Carlsbad, CA) in HMI-9 media. T. b. brucei parasites were conditioned to the test serum concentrations for at least one round of passage prior to assay. Test compounds were added, incubated for 72 h, signal measured and IC50 determinations were conducted as described above using the resazurin endpoint. The fold change in IC50 from minimal serum concentration to maximal serum concentration was calculated and used to compare compounds and their potential for being restrictively protein bound.

T. brucei = details: cited from earlier work
[4] = design: method as in Milford et al. [1993]; details: human patients; ref Milford et al. [1993]; cited from earlier work
[5] = design: method as in Sanderson et al. [2008]; details: mice; ref Sanderson et al. [2008]; cited from earlier work
[6] = human patients, 24 h after last injection of multi-day regimen; ref Burri and Keiser, [2001]; cited from earlier work
[7] = intravenous 2·2–3·6 mg kg^−1, uninfected vervet monkeys; ref Burri et al. [1994]; cited from earlier work
[8] = cited from earlier work
[9] = MDCK-MDR1, with GF120918 2 μM, with 2 μM GF120918, read-out: Papp, A–B direction+GF918
[10] = MDCK-MDR1, read-out: Papp, A–B direction

Compound	P-gp classification [1]	Mass balance A–B+GF918 [1]	Mass balance A–B [1]	Papp A→B at 1 h, 3 μM (P-gp (human MDR1); [9])	Papp A→B at 1 h, 3 μM (P-gp (human MDR1); [10])	Mass balance [2]	time CNS (brain) total concentration above MIC [3]	Selectivity (L929 mammalian cell line)	other results
Cc1ccc(C(=O)Nc2ccc(S(=O)(=O)O)c3cc(S(=O)(=O)O)cc(S(=O)(=O)O)c23)cc1NC(=O)c1cccc(NC(=O)Nc2cccc(C(=O)Nc3cc(C(=O)Nc4ccc(S(=O)(=O)O)c5cc(S(=O)(=O)O)cc(S(=O)(=O)O)c45)ccc3C)c2)c1 [suramin]									fold change in IC50 between 2·5 and 50% calf serum (T. b. brucei): 26 fold
NCCCC(N)(C(=O)O)C(F)F (stereo not shown) [eflornithine]									in vitro MIC (T. brucei; ref Sanderson et al. [2008]): ca. 50 μM; CSF level at steady state [4]: 5 to 150 nM; maximum concentration (CNS exposure) [5]: 10 to 40 nM
Nc1nc(N)nc(Nc2ccc([As]3SCC(CO)S3)cc2)n1 (stereo not shown) [melarsoprol]									in vitro MIC (T. brucei; ref Burri et al. [1994]): 2 to 100 ng/mL; CSF concentration [6]: 39 to 79 ng/mL; maximum concentration in CSF [7]: ~50 ng/mL; drug-induced death, patients ([8]; Stage 2 HAT patients, ref Schmid et al. [2004], Doua et al. [2005], Kuepfer et al. [2012]): 2–10%; failure rate with treatment ([8]; ref Legros et al. [1999]): 3–30%

More lines, main results first:

P-gp classification [1]	Mass balance A–B+GF918 [1]	Mass balance A–B [1]	Papp A→B at 1 h, 3 μM (P-gp (human MDR1); [9])	Papp A→B at 1 h, 3 μM (P-gp (human MDR1); [10])	Mass balance [2]	time CNS (brain) total concentration above MIC [3]	Compound	Selectivity (L929 mammalian cell line)	other results
Non-substrate	90%	92%	43.4 ×10⁻⁶ cm/s	42.4 ×10⁻⁶ cm/s	110%		O=C(Nc1ccc2c(c1)B(O)OC2)c1ccccc1C(F)(F)F [AN3520]	⩾94	
Non-substrate	95%	89%	38.6 ×10⁻⁶ cm/s	37.9 ×10⁻⁶ cm/s	97%	approximately 10 h	O=C(Nc1ccc2c(c1)B(O)OC2)c1ccc(F)cc1C(F)(F)F [SCYX-6759]	⩾136	cures in the CNS (Stage 2) murine model (T. b. brucei (TREU 667)): 100%
Non-substrate	99%	94%	46.5 ×10⁻⁶ cm/s	43.8 ×10⁻⁶ cm/s	106%	1 h	[O-][S+](c1ccc(Cl)cc1)c1ccc2c(c1)B(O)OC2 (stereo not shown) [AN2920]	⩾49	time plasma concentration maintained above MIC ([3]; total concentration): approximately 7 h
